Patent US11352350B2, “IRAK degraders and uses thereof” (Kymera Therapeutics, Inc., priority 2018, dated 2022)
Read-outs that look alike come from different tables or passages of the source.

How the values were obtained:
OCI-LY10 = experiment: CTG Cell Viability Assay - OCI-LY10; assay type: cell-based, human; conditions: OCI-LY10, 4 days, read-out: CTG Cell Viability Assay - OCI-LY10: Average external-IC50
Method: Compound-mediated viability effect on OCI-LY10 or TMD8 was quantitatively determined using the CellTiter-Glo® Luminescent Cell Viability Assay kit from Promega (Catalog number G7570) following manufacturer's recommended procedures. […] Compounds were then added to the assay plate with final top concentration of 10 μM and 1:3 dilution series with total of 9 doses. The final DMSO concentration was normalized to 0.2%. The assay plates were incubated at 37° C. for 4 days under 5% CO2. Then the assay plate was equilibrated at room temperature for 10 minutes. […] The data was then analyzed by software Prism 7.0 from GraphPad and the dose response curves were fit using a three-parameter logistic equation to calculate IC50.

IRAK4 = IRAK4 (Homo sapiens (Human), UniProt Q9NWZ3); experiment: IRAK4 MSD degradation in OCI-LY10; assay type: cell-based
Method: Degradation of IRAK4 in OCI-LY10 was quantitatively measured using Meso Scale Discovery technology. […] Compounds were then added to the assay plates with a final top concentration of 1 to 10 μM in a 1:3 dilution series with total of 8 doses. The assay plates were then incubated for 4 to 24 hours at 37° C. under 5% CO2. […] To prepare MSD assay plates (Meso Scale Discovery Catalog number L15XA-3), the plates were coated with […] capture antibody (mouse Anti-IRAK4 antibody [2H9], ab119942) in PBS, at 40 μL/well. […] Cell lysates were then added to MSD assay plates and the plates were incubated at room temperature for 1 hour. The plates were then washed 3 times with 150 μL/well TBST buffer and 25 μL/well primary detection antibody (rabbit Anti-IRAK4 antibody [Y279], from Abcam. Catalog number ab32511, […]). The assay plates were then incubated at room temperature for 1 hour, washed 3 times with 150 μL/well TBST buffer and 25 µL/well secondary detection antibody, SULFO-TAG anti-rabbit antibody were added (anti rabbit antibody from Meso Scale Discovery, Catalog number R32AB-1, 1 μg/mL). The assay plates were then incubated at room temperature for 1 hour, washed 3 times with 150 μL/well TB ST buffer, and 150 μL/well MSD reading buffer (Meso Scale Discovery catalog number R92TC-2) was added. The plates were then analyzed by a MSD reader (Meso Scale Discovery, Model Quick Plex SQ 120). The data was then analyzed by software Prism 7.0 from GraphPad and the dose-depended IRAK4 degradation were fit using a three-parameter logistic equation to calculate DC50.

[1] = OCI-LY10, 4 hrs, MSD, read-out: IRAK4 MSD degradation in OCI-LY10 at 4 hrs: Average external-Abs DC50
[2] = OCI-LY10, 24 hrs, MSD, read-out: IRAK4 MSD degradation in OCI-LY10 at 24 hrs: Average external-Abs DC50
[3] = OCI-LY10, 4 hrs, read-out: IRAK4 MSD degradation in OCI-LY10 at 4 hrs: DC50
[4] = OCI-LY10, 24 hrs, read-out: IRAK4 MSD degradation in OCI-LY10 at 24 hrs: DC50

IRAK4, sequence (Q9NWZ3 whole entry): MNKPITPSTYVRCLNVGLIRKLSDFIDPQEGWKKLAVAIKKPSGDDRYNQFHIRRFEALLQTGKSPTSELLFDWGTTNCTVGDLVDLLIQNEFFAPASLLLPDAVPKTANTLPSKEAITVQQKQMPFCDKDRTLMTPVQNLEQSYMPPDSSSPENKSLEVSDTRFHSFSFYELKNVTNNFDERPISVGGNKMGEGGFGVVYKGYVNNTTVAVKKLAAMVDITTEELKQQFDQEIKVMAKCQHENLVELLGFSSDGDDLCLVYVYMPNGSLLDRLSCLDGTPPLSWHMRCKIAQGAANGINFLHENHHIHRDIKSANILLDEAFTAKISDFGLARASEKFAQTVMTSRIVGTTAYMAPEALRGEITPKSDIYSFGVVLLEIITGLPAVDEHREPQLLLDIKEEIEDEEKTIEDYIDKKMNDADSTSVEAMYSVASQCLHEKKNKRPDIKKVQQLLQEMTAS

SMILES	IC50 (OCI-LY10; Homo sapiens, OCI-Ly10, 96 h) [nM]	DC50 (IRAK4; [1]) [nM]	DC50 (IRAK4; [2]) [nM]	further results
O=C1CCC(N2C(=O)c3cccc(NCCCOC[C@@H]4CN(C[C@H]5CC[C@H](n6cc(NC(=O)c7coc(-c8ccnc(NCC9CC9)c8)n7)c(C(F)F)n6)CC5)CCO4)c3C2=O)C(=O)N1 (some centres unmarked) [I-353]	100 to 500	10 to 100	10 to 100	
NC[C@H]1CC[C@H](n2cc(NC(=O)c3cnn4ccc(N5CCOCC5)nc34)c(C(F)F)n2)CC1 [I-313, N-[l-[4-(aminomethyl)cyclohexyl]-3-(difluoromethyl)pyrazol-4-yl]-5-morpholino-pyrazolo [1,5-a]pyrimidine-3-carboxamide]	> 1000	> 1000	> 1000	
Cc1nc2cccc(N(C)CCCOC3CCN(C[C@H]4CC[C@H](n5cc(NC(=O)c6cnn7ccc(N8CCOCC8)nc67)c(C(F)F)n5)CC4)CC3)c2c(=O)n1C1CCC(=O)NC1=O (some centres unmarked) [I-214]	> 1000	> 1000	> 1000	
CN(C[C@H]1CC[C@H](n2cc(NC(=O)c3cnn4ccc(NCC5CC5)nc34)c(C(F)F)n2)CC1)[C@H]1CC[C@H](Nc2cccc3c2C(=O)N(C2CCC(=O)NC2=O)C3=O)CC1 (some centres unmarked) [I-453]	50 to 100			DC50 (IRAK4; [3]): 10 to 100 nM; DC50 (IRAK4; [4]): < 10 nM
CN(C[C@H]1CC[C@H](n2cc(NC(=O)c3cnn4ccc(N5C[C@H]6C[C@@H]5CO6)nc34)c(C(F)F)n2)CC1)C1CCN(CCNc2cccc3c2C(=O)N(C2CCC(=O)NC2=O)C3=O)CC1 (some centres unmarked) [I-367]	100 to 500	10 to 100		
NC(=O)c1nn([C@H]2CC[C@@H](C(=O)NCCOCCOCCNc3cccc4c3C(=O)N(C3CCC(=O)NC3=O)C4=O)CC2)cc1NC(=O)c1coc(-c2ccnc(NCC(F)(F)F)c2)n1 (single isomer, unassigned) [I-14, N-(3-carbamoyl-1-((1s,4s)-4-((2-(2-(2-((2-(2,6-dioxopiperidin-3-yl)-1,3-dioxoisoindolin-4-yl)amino)ethoxy)ethoxy)ethyl)carbamoyl)cyclohexyl)-1H-pyrazol-4-yl)-2-(2-((2,2,2-trifluoroethyl)amino)pyridin-4-yl)oxazole-4-carboxamide]	100 to 500	10 to 100		
Cn1c(=O)n(C2CCC(=O)NC2=O)c2cccc(CCCOCC3CCN(C[C@H]4CC[C@H](n5cc(NC(=O)c6cnn7ccc(N8CCNCC8)nc67)c(C(F)F)n5)CC4)CC3)c21 (some centres unmarked) [I-164]	> 1000	< 10		
CN(CCCOCCCc1cccc2c1n(C)c(=O)n2[C@@H]1CCC(=O)NC1=O)C[C@H]1CC[C@H](n2cc(NC(=O)c3coc(-c4ccnc(NCC5CC5)c4)n3)c(C(F)F)n2)CC1 (single isomer, unassigned) [I-307]	> 1000	10 to 100		
CC[C@@H]1[C@H](F)C(=O)N[C@@H]1COc1ncc(C#C[C@H]2CC[C@H](CN)CC2)c2cc(C(N)=O)c(OC)cc12 [I-314, 4-[2-[4-(Aminomethyl)cyclohexyl]ethynyl]-1-[[(2S,3S,4S)-3-ethyl-4-fluoro-5-oxo-pyrrolidin-2-yl]methoxy]-7-methoxy-isoquinoline-6-carboxamide]	> 1000	> 1000	> 1000	
CC[C@@H]1[C@H](F)C(=O)N[C@@H]1COc1ncc(C#C[C@H]2CC[C@H](CN(C)C3CCN(Cc4ccc5c(c4)n(C)c(=O)n5C4CCC(=O)NC4=O)CC3)CC2)c2cc(C(N)=O)c(OC)cc12 (some centres unmarked) [I-190]	> 1000	100 to 1000	10 to 100	
CN(CCCOCCCNc1cccc2c1C(=O)N(C1CCC(=O)NC1=O)C2=O)C[C@H]1CC[C@H](n2cc(NC(=O)c3coc(-c4ccnc(N[C@H]5CCCC[C@H]5O)c4)n3)c(C(F)F)n2)CC1 (some centres unmarked) [I-398]	50 to 100	10 to 100	10 to 100	
Cn1c(=O)n(C2CCC(=O)NC2=O)c2ccc(CCCOC3CCN(C[C@H]4CC[C@H](n5cc(NC(=O)c6cnn7ccc(N8CCNCC8)nc67)c(C(F)F)n5)CC4)CC3)cc21 (some centres unmarked) [I-162]	> 1000	< 10		
CN(C[C@H]1CC[C@H](n2cc(NC(=O)c3coc(-c4ccnc(NCC5CC5)c4)n3)c(C(F)F)n2)CC1)C1CN(Cc2cccc3c2n(C)c(=O)n3C2CCC(=O)NC2=O)C1 (some centres unmarked) [I-240]	> 1000	< 10		
Cn1c(=O)n(C2CCC(=O)NC2=O)c2cccc(CCCOCC3CCN(C[C@H]4CC[C@H](n5cc(NC(=O)c6cnn7ccc(N8CCOCC8)nc67)c(C(F)F)n5)CC4)CC3)c21 (some centres unmarked) [I-198]	> 1000	< 10		
CN(CC1CCC(n2cc(NC(=O)c3cnn4ccc(C5CCOCC5)nc34)c(C(F)F)n2)CC1)[C@H]1CC[C@H](Nc2cccc3c2C(=O)N(C2CCC(=O)NC2=O)C3=O)CC1 (some centres unmarked) [I-478]	> 1000			DC50 (IRAK4; [3]): 100 to 1000 nM; DC50 (IRAK4; [4]): 10 to 100 nM
Cn1c(=O)n(C2CCC(=O)NC2=O)c2cccc(CCCOCCOCCOCCOCC(=O)N3CCN([C@H]4CC[C@H](Nc5ncnc6[nH]cc(C7CCOCC7)c56)CC4)CC3)c21 (some centres unmarked) [I-53]	> 1000	100 to 1000	10 to 100	
O=C1CCC(N2C(=O)c3cccc(NCCCOC4CCN(C[C@H]5CC[C@H](n6cc(NC(=O)c7cnn8ccc(N9CC%10CC(C9)O%10)nc78)c(C(F)F)n6)CC5)CC4)c3C2=O)C(=O)N1 (some centres unmarked) [I-344]	< 50	100 to 1000		
CN(CCC#CCN)C[C@H]1CC[C@H](n2cc(NC(=O)c3cnn4ccc(N5CCOCC5)nc34)c(C(F)F)n2)CC1 [I-412, N-[1-[4-[[5-aminopent-3-ynyl(methyl)amino]methyl]cyclohexyl]-3-(difluoromethyl)pyrazol-4-yl]-5-morpholino-pyrazolo [1,5-a]pyrimidine-3-carboxamide]	> 1000	> 1000	> 1000	
CC[C@@H]1[C@H](F)C(=O)N[C@@H]1COc1ncc(C#C[C@H]2CC[C@H](CN3CCC(OCCCc4cccc5c4n(C)c(=O)n5C4CCC(=O)NC4=O)CC3)CC2)c2cc(C(N)=O)c(OC)cc12 (some centres unmarked) [I-186]	> 1000	10 to 100	< 10	
NC[C@H]1CC[C@H](n2cc(NC(=O)c3coc(-c4ccnc(NCC5CC5)c4)n3)c(C(F)F)n2)CC1 [I-312, N-[1-[4-(aminomethyl)cyclohexyl]-3-(difluoromethyl)pyrazol-4-yl]-2-[2-(cyclopropylmethylamino)-4-pyridyl]oxazole-4-carboxamide]	> 1000	> 1000	> 1000	
CN1C(=O)CCC(n2c(=O)n(C)c3c(C#CCOC4CCN(C[C@H]5CC[C@H](n6cc(NC(=O)c7cnn8ccc(N9C[C@H]%10C[C@@H]9CO%10)nc78)c(C(F)F)n6)CC5)CC4)cccc32)C1=O (stereo partly drawn) [I-563, N-[3-(difluoromethyl)-1-[4-[[4-[3-[3-methyl-1-(1-methyl-2,6-dioxo-3-piperidyl)-2-oxo-benzimidazol-4-yl]prop-2-ynoxy]-1-piperidyl]methyl]cyclohexyl]pyrazol-4-yl]-5-[(1R,4R)-2-oxa-5-azabicyclo [2.2.1]heptan-5-yl] pyrazolo[1,5-a] pyrimidine-3-carboxamide]				IC50 (OCI-LY10; Homo sapiens, 96 h): > 1000 nM
Cn1c(=O)n(C2CCC(=O)NC2=O)c2ccc(CCCOCC3CCN(C[C@H]4CC[C@H](n5cc(NC(=O)c6coc(-c7ccnc(NCC8CC8)c7)n6)c(C(F)F)n5)CC4)CC3)cc21 (some centres unmarked) [I-119]	> 1000			
CN1C(=O)C(C2CCC(=O)NC2=O)c2cccc(CCCOC3CCN(CC4CCC(n5cc(NC(=O)c6cnn7ccc(NC8CCCCC8O)nc67)c(C(F)F)n5)CC4)CC3)c21 (centres unmarked) [I-290]				IC50 (OCI-LY10): > 1000 nM
CN(CCCOCC#Cc1ccc2c(c1)n(C)c(=O)n2C1CCC(=O)NC1=O)C[C@H]1CC[C@H](n2cc(NC(=O)c3coc(-c4ccnc(NCC5CC5)c4)n3)c(C(F)F)n2)CC1 (some centres unmarked) [I-126]	> 1000			
